Experiment [1] is filed under the species Canis familiaris. The following applies: Canis lupus familiaris; Saphenous vein; filed as antagonist.
In experiment [2] the target is D(1A) dopamine receptor (Homo sapiens, UniProt P21728). The experiment is described as follows: Binding affinity against dopamine receptor D1.
Experiment [3] deals with 5-hydroxytryptamine receptor 1D (Cavia porcellus) (UniProt Q60484). Description: Oral effective dose against hypothermia in the guinea pig caused by stimulation of central 5-hydroxytryptamine 1D receptors by the agonist GR-46611;range is 0.2-0.4. The class given is functional.
Experiment [4] is filed under the species Oryctolagus cuniculus. Description: Tested in vitro for its ability to block 5-HT2A induced contraction of rabbit isolated aorta. It is filed as functional.
For experiment [5], the target named is 5-hydroxytryptamine receptor 1D (Cavia porcellus, UniProt Q60484). Description: In vitro binding affinity towards 5-hydroxytryptamine 1D receptor in guinea-pig striatum in presence of BMY-7378 and mesulergine. The class given is tissue-based.
Sequence of 5-hydroxytryptamine receptor 1D (Q60484 whole entry): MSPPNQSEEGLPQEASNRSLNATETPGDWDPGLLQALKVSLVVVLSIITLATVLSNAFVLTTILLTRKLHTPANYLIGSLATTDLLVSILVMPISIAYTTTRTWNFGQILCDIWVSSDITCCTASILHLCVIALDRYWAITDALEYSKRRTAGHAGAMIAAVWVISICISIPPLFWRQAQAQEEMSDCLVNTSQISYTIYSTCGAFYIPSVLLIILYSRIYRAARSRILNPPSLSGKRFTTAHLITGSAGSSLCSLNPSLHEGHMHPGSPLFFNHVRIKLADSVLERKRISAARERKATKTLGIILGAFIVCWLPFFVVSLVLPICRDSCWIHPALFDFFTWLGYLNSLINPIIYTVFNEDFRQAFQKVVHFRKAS

Sequence of 5-hydroxytryptamine receptor 1D (Cavia porcellus) (Q60484 whole entry): as above
Sequence of D(1A) dopamine receptor (P21728 whole entry): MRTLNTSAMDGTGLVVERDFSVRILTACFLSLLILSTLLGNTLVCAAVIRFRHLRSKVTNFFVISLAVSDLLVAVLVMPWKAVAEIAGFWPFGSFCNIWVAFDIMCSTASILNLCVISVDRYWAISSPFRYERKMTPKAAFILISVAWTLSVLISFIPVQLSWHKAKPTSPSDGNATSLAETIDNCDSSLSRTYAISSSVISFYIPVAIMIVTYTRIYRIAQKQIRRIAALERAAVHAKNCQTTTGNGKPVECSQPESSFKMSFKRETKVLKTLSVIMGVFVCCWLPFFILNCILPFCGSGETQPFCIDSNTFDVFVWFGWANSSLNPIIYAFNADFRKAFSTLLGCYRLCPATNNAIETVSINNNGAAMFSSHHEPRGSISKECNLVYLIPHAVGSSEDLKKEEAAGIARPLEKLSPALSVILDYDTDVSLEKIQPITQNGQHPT

Turning to `COc1ccc(NC(=O)c2ccc(-c3ccc(-c4noc(C)n4)cc3C)cc2)cc1N1CCN(C)CC1` [GR-127935], the pKB result in experiment [1] is “Antagonist”; in experiment [4] it was 6.4. The Ki was above 10000 nM in experiment [2] and 3.16 nM in experiment [5]. Moreover, the 50% effect level in experiment [3] (ED50) was put at a dose of 0.3 mg/kg.

By pKB is commonly meant the KB on a negative log10 scale, so that one unit is a factor of ten. What is called Ki is a dissociation constant, usually derived from enzyme kinetics or from competition with a known ligand. By ED50 is commonly meant the midpoint of the dose-response relation. A low value points to greater potency.

The values are drawn from ChEMBL document CHEMBL1127581, “Evolution of a novel series of [(N,N-dimethylamino)propyl]- and piperazinylbenzanilides as the first selective 5-HT1D antagonists” (J Med Chem, 1994).
